Columns and labels:
LNCaP cells = experiment: Cell growth inhibition in LNCaP cells (WST-8 assay); format: cell-based
Procedure: LNCaP were treated with different compounds in charcoal stripped medium in the presence of 0.1 nM of AR agonist R1881 for 7 days. Cell viability was determined by a WST-8 assay.
(§1) Cell lines and Cell Culture: All the LNCaP, VCaP and 22RV1 cells used were purchased from American Type Culture Collection (ATCC). LNCaP and 22RV1 cells were grown in RPMI 1640 (Invitrogen), VCaP cells were grown in DMEM with Glutamax (Invitrogen). All of the cells were supplemented with 10% fetal bovine serum (Invitrogen) at 37° C. in a humidified 5% CO2 incubator.

AR protein [1] = target: T1, AR protein (Homo sapiens, UniProt P10275); experiment: AR protein degradation in VCaP cells (Western blotting); format: cell-based
T1 construct: host or cells: VCaP
T1 sequence (P10275 1-920): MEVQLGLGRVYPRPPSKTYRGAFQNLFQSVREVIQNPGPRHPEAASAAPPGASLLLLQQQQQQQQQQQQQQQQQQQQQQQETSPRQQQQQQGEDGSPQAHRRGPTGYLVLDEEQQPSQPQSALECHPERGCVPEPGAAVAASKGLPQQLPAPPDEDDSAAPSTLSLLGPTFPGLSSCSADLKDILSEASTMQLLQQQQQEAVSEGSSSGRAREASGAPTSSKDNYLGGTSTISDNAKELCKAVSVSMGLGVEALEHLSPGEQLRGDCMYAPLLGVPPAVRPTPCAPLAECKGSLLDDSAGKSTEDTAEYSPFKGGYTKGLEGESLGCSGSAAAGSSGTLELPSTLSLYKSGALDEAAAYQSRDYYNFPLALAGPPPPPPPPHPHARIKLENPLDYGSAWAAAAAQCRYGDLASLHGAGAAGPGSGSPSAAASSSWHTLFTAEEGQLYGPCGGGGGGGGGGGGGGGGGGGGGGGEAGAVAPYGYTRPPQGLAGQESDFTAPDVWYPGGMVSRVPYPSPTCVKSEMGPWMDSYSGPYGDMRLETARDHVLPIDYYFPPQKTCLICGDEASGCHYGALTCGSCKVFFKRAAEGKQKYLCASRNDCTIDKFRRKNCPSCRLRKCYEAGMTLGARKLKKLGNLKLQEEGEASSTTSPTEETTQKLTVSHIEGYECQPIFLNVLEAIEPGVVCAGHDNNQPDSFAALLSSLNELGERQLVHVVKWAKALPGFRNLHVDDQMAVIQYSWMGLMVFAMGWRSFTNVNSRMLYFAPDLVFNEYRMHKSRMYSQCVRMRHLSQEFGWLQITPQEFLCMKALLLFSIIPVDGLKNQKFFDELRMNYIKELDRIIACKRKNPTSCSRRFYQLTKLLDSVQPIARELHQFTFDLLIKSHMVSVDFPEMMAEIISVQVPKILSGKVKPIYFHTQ
Procedure: as §1
(§2) Western Blotting. Treated cells were lysed by RIPA buffer supplemented with protease and phosphatase inhibitors. The cell lysates were separated by 4-12% SDS-PAGE gels and blotted into PVDF membranes. Software ImageJ was used to quantify the percentage of AR degradation. The net protein bands and loading controls are calculated by deducting the background from the inverted band value. The final relative quantification values are the ratio of net band to net loading control.

AR protein [2] = experiment: AR protein degradation in 22RV1 cells (Western blotting); format: cell-based
Procedure: as §1, §2

[3] = tested on: AR-regulated gene expression (PSA, TMPRSS2, FKBP5, ERG); experiment: Suppression of AR-regulated gene expression in VCaP cells (qRT-PCR); format: cell-based
Procedure: Quantitative Real-Time Polymerase Chain Reaction (qRT-PCR). Real-time PCR was performed using QuantStudio 7 Flex Real-Time PCR System as described previously.^43,44 RNA was purified using the Qiagen RNase-Free DNase set, then after quantification, the extracted RNA was converted to cDNA using High Capacity RNA-to-cDNA Kit from Applied Biosystems (Thermo Fisher Scientific). The levels of AR, TMPRSS2, FKBP5, PSA(KLK3) and GAPDH were quantified using TaqMan Fast Advanced Master Mix from Applied Biosystems. The level of gene expression was evaluated using comparative CT method, which compares the CT value to GAPDH (ACT) and then to vehicle control (ΔΔCT).

VCaP cells = experiment: Cell growth inhibition in VCaP cells (WST-8 assay); format: cell-based
Procedure: VCaP were treated with different compounds in charcoal stripped medium in the presence of 0.1 nM of AR agonist R1881 for 7 days. Cell viability was determined by a WST-8 assay.
as §1

[4] = target: T2, AR protein in VCaP xenograft tumor tissue (Homo sapiens, UniProt P10275); experiment: Pharmacodynamics in VCaP xenograft tumor tissue in mice (immunoblotting); format: in vivo; settings: SCID mice, single dose 50 mg/kg IP
T2 construct: resected control and treated VCaP xenograft tumor tissues were ground into powder in liquid nitrogen and lysed; from tissue; host or cells: VCaP xenograft tumor tissue from SCID mice
T2 sequence (P10275 1-920): T1 sequence (P10275 1-920)
Procedure: FIG. 9 is an image of an immunoblotting analysis of a pharmacodynamics (PD) study of AR degrader 34 (ARD-69) in VCaP tumor tissue in mice. SCID mice bearing xenograft VCaP tumors were treated with a single dose of 34 (ARD-69) (IP, 50 mg/kg). Tumor tissues were harvested at the indicated time points for immunoblotting.
Pharmacodynamics Studies in the VCaP Xenograft Models in Mice. All animal experiments were performed under the guidelines of the University of Michigan Committee for Use and Care of Animals and using an approved animal protocol (PI, Shaomeng Wang). Xenograft tumors were established by injecting 5×10^6 VCaP cells in 50% Matrigel subcutaneously on the dorsal side of severe combined immunodeficient (SCID) mice, obtained from Charles River, one tumor per mouse. When tumors reached ˜100 mm^3, mice were randomly assigned to treatment and vehicle control groups. Animals were monitored daily for any signs of toxicity and weighed 2-3 times per week during the treatment period and at least weekly after the treatment ended. For pharmacodynamics analysis, resected control and treated VCaP xenograft tumor tissues were ground into powder in liquid nitrogen and lysed in CST lysis buffer with halt proteinase inhibitors. Twenty micrograms of whole tumor clarified lysates were separated on 4-20% or 4-12% Novex gels. Western blots were performed as detailed in the previous section.

22RV1 cells = experiment: Cell growth inhibition in 22RV1 cells (WST-8 assay); format: cell-based
Procedure: 22RV1 cells were treated with a regular culture medium for 7 days. Cell viability was determined by a WST-8 assay.
Cell lines and Cell Culture: All the LNCaP, VCaP and 22RV1 cells used were purchased from American Type Culture Collection (ATCC). […] All of the cells were supplemented with 10% fetal bovine serum (Invitrogen) at 37° C. in a humidified 5% CO2 incubator.

[5] = charcoal stripped medium, 0.1 nM R1881, 7 days

Cc1ncsc1-c1ccc([C@H](CC(=O)N2CCC(N3CCC(C#Cc4ccc(C(=O)NC5C(C)(C)C(Oc6ccc(C#N)c(Cl)c6)C5(C)C)cc4)CC3)CC2)NC(=O)[C@@H]2C[C@@H](O)CN2C(=O)[C@@H](NC(=O)C2(F)CC2)C(C)(C)C)cc1 (stereo partly drawn) [Compound 34, (2S,4R)—N—((S)-3-(4-((4-(((1r,3r)-3-(3-Chloro-4-cyanophenoxy)-2,2,4,4-tetramethyl-cyclobutyl)carbamoyl)phenyl)ethynyl)-[1,4′-bipiperidin]-1′-yl)-1-(4-(4-methylthiazol-5-yl)phenyl)-3-oxopropyl)-1-((S)-2-(1-fluorocyclopropane-1-carboxamido)-3,3-dimethylbutanoyl)-4-hydroxypyrrolidine-2-carboxamide]
Potency relative to enzalutamide (4) and compound 6 in cell growth inhibition (LNCaP cells): > 100 times | IC50 (LNCaP cells; [5]): 0.25 nM | AR degradation (AR protein [1]; 10 nM, 24 h treatment): > 95% | Time to effective reduction of AR protein level (AR protein [1]; 100 nM): ≤ 2 h | AR depletion with a 4 h treatment (AR protein [1]; 100 nM, 4 h): near-complete AR depletion | DC50 (AR protein [1]; 24 h treatment, read-out: DC50 (drug concentration that results in 50% protein degradation)): 0.76 nM | AR degradation after pretreatment with AR antagonist (6), VHL-d, MLN4924 or MG132 (AR protein [1]; data not shown): effectively blocked | AR degradation (AR protein [2]; 22RV1, 1 μM, 24 h treatment): near complete degradation | DC50 (AR protein [2]; 22RV1, 24 h treatment, read-out: DC50 (drug concentration that results in 50% protein degradation)): 10.4 nM | Potency relative to AR antagonist 6 in suppressing AR-regulated gene transcription [3]: > 100 times | Reduction of mRNA level of both PSA and TMPRSS2 genes ([3]; 10 nM): > 50% | ERG gene expression ([3]; dose-dependent): suppresses | Expression of PSA, TMPRSS2 and FKBP5 genes ([3]; dose-dependent, data not shown): effectively suppressed | Potency relative to enzalutamide (4) and compound 6 in cell growth inhibition (VCaP cells): > 100 times | IC50 (VCaP cells; [5]): 0.34 nM | Persistence of AR protein reduction [4]: at least 48 h | Persistence of PSA protein reduction [4]: 24 to 48 h | Level of PSA protein in tumor tissue ([4]; at the 3 h time-point): effectively reduced | Level of AR protein in tumor tissue ([4]; starting at 3 h): effectively reduced | Potency relative to enzalutamide (4) and compound 6 in cell growth inhibition (22RV1 cells; 22RV1): > 100 times | IC50 (22RV1 cells; 22RV1, regular culture medium, 7 days): 183 nM

— patent US20220081435A1, “ANDROGEN RECEPTOR PROTEIN DEGRADERS” (THE REGENTS OF THE UNIVERSITY OF MICHIGAN, priority 2019, published 2022)
